According to US20130183268A1, “DRUG COMBINATIONS WITH FLUORO-SUBSTITUTED OMEGA-CARBOXYARYL DIPHENYL UREA FOR THE TREATMENT AND PREVENTION OF DISEASES AND CONDITIONS” (BAYER HEALTHCARE LLC, priority 2010, published 2013):

How the values were obtained:
Flk-1 (murine VEGFR-2) = target: T1, Flk-1 (murine VEGFR-2) (Mus musculus, UniProt P35918); test: Flk-1 (murine VEGFR-2) biochemical assay (TR-FRET); settings: in words
T1 construct: 7 nM Flk-1 (kinase domain)
Procedure: This assay was performed in 96-well opaque plates (Costar 3915) in the TR-FRET format. Reaction conditions are as follows: 10 μM ATP, 25 nM poly GT-biotin, 2 nM Eu-labelled phospho-Tyr Ab, 10 nM APC, 7 nM Flk-1 (kinase domain), 1% DMSO, 50 mM HEPES pH 7.5, 10 mM MgCl2, 0.1 mM EDTA, 0.015% BRIJ, 0.1 mg/mL BSA, 0.1% mercapto-ethanol). Reaction is initiated upon addition of enzyme. Final reaction volume in each well is 100 μL. Plates are read at both 615 and 665 nM on a Perkin Elmer Victor V Multilabel counter at about 1.5-2.0 hours after reaction initiation. Signal is calculated as a ratio: (665 nm/615 nm)*10000 for each well.
(§2) For IC50 generation for both PDGFR and Flk-1, compounds were added prior to the enzyme initiation. A 50-fold stock plate was made with compounds serially diluted 1:3 in a 50% DMSO/50% dH2O solution. […] The data were expressed as percent inhibition: % inhibition=100−((Signal with inhibitor-background)/(Signal without inhibitor-background))*100

[1] = Metabolite profile, incubation of [14C]regorafenib with liver microsomes (mouse); type: in vitro ADME, NMRI mouse; settings: [14C]regorafenib 20 μM, liver microsomes 0.5 mg/mL, 60 min
Procedure: (§1) N-oxide (M-2), hydroxymethyl (M-3), de-methylated (M-4) and N-oxide-demethylated (M-5) metabolites of the fluoro-substituted diaryl urea of Formula (I) are shown below. They were identified as metabolites of regorafenib in vitro upon incubation with liver enzymes of various mammalian species (man, dog, rat, mouse). Studies reveal that its metabolites show high protein binding in man and animal species (data not shown). [table]

[2] = Metabolite profile, incubation of [14C]regorafenib with liver microsomes (man); type: in vitro ADME; settings: [14C]regorafenib 20 μM, liver microsomes 0.5 mg/mL, 60 min
Procedure: as §1

[3] = Metabolite profile, incubation of [14C]regorafenib with liver microsomes (rat); type: in vitro ADME, Wistar rat; settings: [14C]regorafenib 20 μM, liver microsomes 0.5 mg/mL, 60 min
Procedure: as §1

[4] = system: basal pERK in MDA-MB-231 cells; test: Bio-Plex phospho-ERK1/2 immunoassay; type: cell-based, human
Procedure: A 96 well pERK immunoassay, using laser flow cytometry (Bio-Rad) platform has been established to measure inhibition of basal pERK in breast cancer cell line. MDA-MB-231 cells were plated at 50,000 cells per well in 96 well microtitre plates in complete growth media. For effects of test compounds on basal pERK1/2 inhibition, the next day after plating, MDA-MB-231 cells were transferred to DMEM with 0.1% BSA and incubated with test compounds diluted 1:3 to a final concentration of 3 μM to 12 nM in 0.1% DMSO. Cells were incubated with test compounds for 2 h, washed, and lysed in Bio-Plex whole cell lysis buffer A. Samples are diluted with buffer B 1:1 (v/v) and directly transferred to assay plate or frozen at −80 C. degrees until processed. 50 μL of diluted MDA-MB-231 cell lysates were incubated with about 2000 of 5 micron Bio-Plex beads conjugated with an anti-ERK1/2 antibody overnight on a shaker at room temperature. The next day, biotinylated phospho-ERK1/2 sandwich immunoassay was performed, beads are washed 3 times during each incubation and then 50 μL of PE-strepavidin was used as a developing reagent. The relative fluorescence units of pERK1/2 were detected by counting 25 beads with Bio-Plex flow cell (probe) at high sensitivity. The IC50 was calculated by taking untreated cells as maximum and no cells (beads only) as background using in an Excel spreadsheet based program.

mouse PDGFR = mouse PDGFR (Mus musculus, UniProt P05622); test: Murine PDGFR FRET biochemical assay; settings: in words
Procedure: This assay was formatted in a 96-well black plate (Costar 3915). The following reagents are used: Europium-labeled anti-phosphotyrosine antibody pY20 (Perand streptavidin-APC; poly GT-biotin from, and mouse PDGFR. The reaction conditions are as follows: 1 nM mouse PDGFR is combined with 20 μM ATP, 7 nM poly GT-biotin, 1 nM pY20 antibody, 5 nM streptavidin-APC, and 1% DMSO in assay buffer (50 mM HEPES pH 7.5, 10 mM MgCl2, 0.1 mM EDTA, 0.015% BRIJ 35, 0.1 mg/mL BSA, 0.1% mercaptoethanol). Reaction is initiated upon addition of enzyme. Final reaction volume in each well is 100 μL. After 90 minutes, the reaction is stopped by addition of 10 μL/well of 5 μM staurosporine. Plates are read at both 615 and 665 nm on a Perkin Elmer VictorV Multilabel counter at about 1 hour after the reaction is stopped. Signal is calculated as a ratio: (665 nm/615 nm)*10000 for each well.
as §2

p38 α2 = target: T2, p38 α2 (Homo sapiens, UniProt Q16539); test: p38 kinase in vitro assay; type: biochemical; settings: in words
T2 construct: His; made in house; host or cells: E. coli
Procedure: Purified and His-tagged p38 α2 (expressed in E. Coli) was activated in vitro by MMK-6 to a high specific activity. Using a microtiter format, all reactions were conducted in 100 μL volumes with reagents diluted to yield 0.05 μg/well of activated p38 α2 and 10 μg/well of myelin basic protein in assay buffer (25 mM HEPES 7.4, 20 mM MgCl2, 150 mM NaCl). Test compounds (5 μL of a 10% DMSO solution in water) were prepared and diluted into the assay to cover a final concentration range from 5 nM to 2.5 μM. The kinase assay was initiated by addition of 25 μL of an ATP cocktail to give a final concentration of 10 μM cold ATP and 0.2 μCi [gamma-^33P] ATP per well (200-400 dpm/pmol of ATP). The plate was incubated at 32° C. for 35 min., and the reaction quenched with 7 μL of a 1 N aq HCl solution. The samples were harvested onto a P30 Filtermat (Wallac, Inc.) using a TomTec 1295 Harvester (Wallac, Inc.), and counted in a LKB 1205 Betaplate Liquid Scintillation Counter (Wallac, Inc.). Negative controls included substrate plus ATP alone. SW1353 cellular assay: SW1353 cells (human chondro-sarcoma) are seeded (1000 cells/100 μL DMEM 10% FCS/well) into 96-well plates and incubated overnight. […] Cultures are incubated for 48 h at 37° C., then supernatant IL-6 values are determined by ELISA.

[5] = system: MDA MB-231 human breast carcinoma cells; test: MDA-MB231 proliferation assay; type: cell-based
Procedure: Human breast carcinoma cells (MDA MB-231, NCI) were cultured in standard growth medium (DMEM) supplemented with 10% heat-inactivated FBS at 37° C. in 5% CO2 (vol/vol) in a humidified incubator. Cells were plated at a density of 3000 cells per well in 90 μL growth medium in a 96 well culture dish. In order to determine T0h CTG values, 24 hours after plating, 100 μL of CellTiter-Glo Luminescent Reagent (Promega) was added to each well and incubated at room temperature for 30 minutes. Luminescence was recorded on a Wallac Victor II instrument. […]
Test compounds are dissolved in 100% DMSO to prepare 10 mM stocks. […] The cells with and without individual test compounds were incubated for 72 hours at which time ATP dependent luminescence was measured, as described previously, to yield T72h values. Optionally, the IC50 values can be determined with a least squares analysis program using compound concentration versus percent inhibition.
% Inhibition=[1−(T72h test−T0h)/(T72h ctrl−T0h)]×100, where • T72h test=ATP dependent luminescence at 72 hours in the presence of test compound • T72h ctrl=ATP dependent luminescence at 72 hours in the absence of test compound • T0h=ATP dependent luminescence at Time Zero

T1 sequence (P35918 832-1160 limits assumed): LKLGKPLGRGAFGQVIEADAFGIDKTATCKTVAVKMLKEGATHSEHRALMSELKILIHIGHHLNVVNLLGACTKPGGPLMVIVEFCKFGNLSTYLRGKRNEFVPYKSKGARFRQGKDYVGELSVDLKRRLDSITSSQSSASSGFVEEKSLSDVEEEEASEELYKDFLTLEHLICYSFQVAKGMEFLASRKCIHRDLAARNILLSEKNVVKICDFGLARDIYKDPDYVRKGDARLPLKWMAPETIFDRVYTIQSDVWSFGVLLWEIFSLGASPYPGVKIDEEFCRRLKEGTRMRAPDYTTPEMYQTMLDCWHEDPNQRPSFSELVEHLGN
mouse PDGFR, sequence (P05622 553-1098 limits assumed): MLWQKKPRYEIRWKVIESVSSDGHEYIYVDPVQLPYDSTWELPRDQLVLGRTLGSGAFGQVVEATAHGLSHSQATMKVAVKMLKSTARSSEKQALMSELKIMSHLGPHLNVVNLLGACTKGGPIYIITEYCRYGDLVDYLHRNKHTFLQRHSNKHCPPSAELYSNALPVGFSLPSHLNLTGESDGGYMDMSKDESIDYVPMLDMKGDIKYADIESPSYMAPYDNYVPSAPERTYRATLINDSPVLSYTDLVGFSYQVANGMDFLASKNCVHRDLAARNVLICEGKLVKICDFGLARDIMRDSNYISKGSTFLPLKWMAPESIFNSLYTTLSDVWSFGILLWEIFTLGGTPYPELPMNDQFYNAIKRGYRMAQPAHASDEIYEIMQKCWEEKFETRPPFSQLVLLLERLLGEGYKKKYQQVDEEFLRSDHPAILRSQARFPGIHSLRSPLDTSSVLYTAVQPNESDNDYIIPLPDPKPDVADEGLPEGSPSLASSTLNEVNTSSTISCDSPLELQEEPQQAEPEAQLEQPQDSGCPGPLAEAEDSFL
T2 sequence (Q16539 whole entry): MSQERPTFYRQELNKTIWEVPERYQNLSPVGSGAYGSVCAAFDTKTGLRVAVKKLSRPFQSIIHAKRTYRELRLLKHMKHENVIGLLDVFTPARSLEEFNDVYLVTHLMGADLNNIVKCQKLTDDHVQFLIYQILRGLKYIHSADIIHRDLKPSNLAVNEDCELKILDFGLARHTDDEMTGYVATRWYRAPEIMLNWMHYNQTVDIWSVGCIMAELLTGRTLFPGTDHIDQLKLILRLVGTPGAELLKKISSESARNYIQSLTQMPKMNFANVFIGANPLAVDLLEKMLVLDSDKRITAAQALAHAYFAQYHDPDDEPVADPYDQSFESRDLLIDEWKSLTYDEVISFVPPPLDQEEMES

## CNC(=O)c1cc(Oc2ccc(NC(=O)Nc3ccc(Cl)c(C(F)(F)F)c3)c(F)c2)ccn1 [Example 1, 4{4-[3-(4-chloro-3-trifluoromethylphenyl)-ureido]-3-fluorophenoxy}-pyridine-2-carboxylic acid methylamide]
Flk-1 (murine VEGFR-2)
  inhibition of VEGFR2 kinase: significant inhibition
[1]
  % of radioactivity, NMRI mouse: 57.8%
[2]
  % of radioactivity, Man: 59.1%
[3]
  % of radioactivity, Wistar rat: 75.7%
[4]; Homo sapiens, MDA-MB-231 cells, 2 h
  IC50: 22 nM
[4]; in words
  inhibition of basal pERK: significant inhibition
Mouse PDGFR
  inhibition of PDGFR kinase: significant inhibition
p38 α2
  inhibition of p38 kinase: significant inhibition
[5]; Homo sapiens, MDA-MB-231 cells, 72 hours
  IC50: 600 nM
[5]; in words
  inhibition of proliferation: significant inhibition
